Target: T1, Epidermal growth factor receptor (Homo sapiens, UniProt P00533)
Test: Inhibition of EGFR (unknown origin) by Z'-LYTE assay

T1 sequence (P00533 whole entry): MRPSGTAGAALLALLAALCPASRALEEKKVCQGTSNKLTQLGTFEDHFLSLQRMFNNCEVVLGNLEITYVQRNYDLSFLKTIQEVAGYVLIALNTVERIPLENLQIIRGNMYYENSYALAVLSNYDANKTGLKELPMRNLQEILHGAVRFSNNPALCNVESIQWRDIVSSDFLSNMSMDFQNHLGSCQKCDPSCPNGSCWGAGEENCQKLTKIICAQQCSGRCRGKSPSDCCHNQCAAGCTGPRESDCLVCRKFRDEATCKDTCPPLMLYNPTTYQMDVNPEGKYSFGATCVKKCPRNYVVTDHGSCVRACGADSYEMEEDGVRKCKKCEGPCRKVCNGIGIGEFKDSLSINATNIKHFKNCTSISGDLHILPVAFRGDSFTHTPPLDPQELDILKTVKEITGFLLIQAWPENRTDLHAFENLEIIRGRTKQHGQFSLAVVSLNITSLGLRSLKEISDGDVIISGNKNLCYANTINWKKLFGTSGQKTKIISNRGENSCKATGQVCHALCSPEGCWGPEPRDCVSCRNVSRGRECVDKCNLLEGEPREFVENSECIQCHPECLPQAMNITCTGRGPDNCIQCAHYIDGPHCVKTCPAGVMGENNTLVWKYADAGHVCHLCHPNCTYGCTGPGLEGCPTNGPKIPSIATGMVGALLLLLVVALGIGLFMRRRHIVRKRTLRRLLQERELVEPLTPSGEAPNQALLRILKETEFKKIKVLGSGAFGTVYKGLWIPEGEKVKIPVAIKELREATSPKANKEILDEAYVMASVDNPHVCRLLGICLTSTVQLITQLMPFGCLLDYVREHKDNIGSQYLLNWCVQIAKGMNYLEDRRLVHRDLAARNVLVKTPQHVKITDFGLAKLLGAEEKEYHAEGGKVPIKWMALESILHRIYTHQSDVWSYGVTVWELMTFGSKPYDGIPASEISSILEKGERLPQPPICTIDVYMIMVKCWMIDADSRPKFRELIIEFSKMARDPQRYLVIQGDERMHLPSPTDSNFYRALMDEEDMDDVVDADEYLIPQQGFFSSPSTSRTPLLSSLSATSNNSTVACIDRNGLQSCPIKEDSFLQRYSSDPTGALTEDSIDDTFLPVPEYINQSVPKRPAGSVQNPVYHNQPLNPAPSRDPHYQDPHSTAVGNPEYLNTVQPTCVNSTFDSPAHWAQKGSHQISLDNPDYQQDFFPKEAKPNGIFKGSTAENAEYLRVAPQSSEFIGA

| SMILES | IC50 [nM] |
| --- | --- |
| COc1ccccc1-c1cc2c(Nc3ccccc3)ncnc2s1 | 173 |
| OC[C@@H](Nc1ncnc2sc(Br)cc12)c1ccccc1 | 36 |
| C[C@@H](Nc1ncnc2sc(Br)cc12)c1ccccc1 | 38 |
| COc1ccccc1-c1cc2c(N[C@H](CO)c3ccccc3)ncnc2s1 | 1 |
| COc1ccccc1-c1cc2c(N[C@@H](C)c3ccccc3)ncnc2s1 | 1860 |
| Brc1cc2c(NCc3ccccc3)ncnc2s1 | 241 |
| C#Cc1cccc(Nc2ncnc3sc(Br)cc23)c1 | 23 |
| COC[C@H](Nc1ncnc2sc(Br)cc12)c1ccccc1 | > 10000 |
| COC[C@@H](Nc1ncnc2sc(Br)cc12)c1ccccc1 | 262 |
| Brc1cc2c(NCc3cccs3)ncnc2s1 | 1370 |
| C[C@@H](Nc1ncnc2sc(Br)cc12)c1ccc(F)cc1 | 150 |
| CC[C@@H](Nc1ncnc2sc(Br)cc12)c1ccccc1 | 183 |
| COc1ccccc1-c1cc2c(NC(C)c3ccccc3)ncnc2s1 (racemic) | 19 |
| Brc1cc2c(Nc3cccc(OCc4ccccc4)c3)ncnc2s1 | > 10000 |
| COc1ccccc1-c1cc2c(NCc3ccccc3)ncnc2s1 | 17 |
| COc1ccccc1-c1cc2c(N[C@H](C)c3ccccn3)ncnc2s1 | 153 |
| C#Cc1cccc(Nc2ncnc3sc(-c4ccccc4OC)cc23)c1 | 18 |
| COc1ccccc1-c1cc2c(N[C@H](C)c3ccccc3)ncnc2s1 | 9 |
| Brc1cc2c(NCc3ccncc3)ncnc2s1 | 3880 |
| COC[C@@H](Nc1ncnc2sc(-c3ccccc3OC)cc12)c1ccccc1 | 23 |

| SMILES | IC50 [nM] |
| --- | --- |
| COc1ccccc1-c1cc2c(NCc3cccnc3)ncnc2s1 | 275 |
| Brc1cc2c(NCc3cccnc3)ncnc2s1 | > 10000 |
| COc1ccccc1-c1cc2c(N[C@H](C)c3ccc(F)cc3)ncnc2s1 | 27 |
| C[C@@H](Nc1ncnc2sc(Br)cc12)c1cccs1 | 415 |
| COc1ccccc1-c1cc2c(NCc3ccncc3)ncnc2s1 | 108 |
| COc1ccccc1-c1cc2c(NC(CO)c3ccccc3)ncnc2s1 (racemic) | 8 |
| OCC(Nc1ncnc2sc(Br)cc12)c1ccccc1 (racemic) | 83 |
| COc1ccccc1-c1cc2c(Nc3ccc(F)c(Cl)c3)ncnc2s1 | 5 |
| Brc1cc2c(Nc3ccccc3)ncnc2s1 | 80 |
| COc1ccccc1-c1cc2c(NCc3ccccn3)ncnc2s1 | 183 |
| CC(Nc1ncnc2sc(Br)cc12)c1ccccc1 (racemic) | 156 |
| C[C@@H](Nc1ncnc2sc(Br)cc12)c1ccccn1 | 2080 |
| Fc1ccc(Nc2ncnc3sc(Br)cc23)cc1Cl | 53 |
| OC[C@H](Nc1ncnc2sc(Br)cc12)c1ccccc1 | > 10000 |
| Brc1cc2c(NCc3ccccn3)ncnc2s1 | 7900 |
| COc1ccccc1-c1cc2c(N[C@H](C)c3cccs3)ncnc2s1 | 55 |
| COc1ccccc1-c1cc2c(NCc3cccs3)ncnc2s1 | 170 |
| C[C@H](Nc1ncnc2sc(Br)cc12)c1ccccc1 | > 10000 |
| COc1ccccc1-c1cc2c(N[C@@H](CO)c3ccccc3)ncnc2s1 | 629 |
| Fc1cccc(COc2ccc(Nc3ncnc4sc(Br)cc34)cc2Cl)c1 | 257 |

Target: T1, Epidermal growth factor receptor
Test: Inhibition of EGFR (unknown origin) using Poly(Glu:Tyr) 4:1 as substrate after 12 to 16 hrs

| SMILES | IC50 [nM] |
| --- | --- |
| OCCN1CCN(Cc2ccc(-c3cc4c(N[C@H](CO)c5ccccc5)ncnc4s3)cc2)CC1 | 600 |
| O=C(c1ccc(-c2cc3c(N[C@H](CO)c4ccccc4)ncnc3s2)cc1)N1CCN(CCO)CC1 | > 5000 |
| OC[C@@H](Nc1ncnc2sc(-c3ccc(CN4CCNCC4)cc3)cc12)c1ccccc1 | 600 |

Target: T1, Epidermal growth factor receptor
Test: Inhibition of EGFR (unknown origin) after 40 mins by scintillation proximity assay

| SMILES | IC50 [nM] |
| --- | --- |
| Fc1cccc(COc2ccc(Nc3ncnc4sc(C#CC5CCCN5)cc34)cc2Cl)c1 (centres undefined) | 109 |
